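Following 48 hours of exposure in 96-well plates, responses at five concentrations were used to interpolate endpoints linearly. At the GI50, growth is halved. TGI: concentration producing complete growth inhibition.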
Tests used:
Assay in all cases: NCI tumour cell line growth inhibition, 48 h
HS 578T breast = system: HS 578T breast
SNB-19 CNS = system: SNB-19 CNS
HCT-116 colon = system: HCT-116 colon
CCRF-CEM leukemia = system: CCRF-CEM leukemia
SF-295 CNS = system: SF-295 CNS
BT-549 breast = system: BT-549 breast
NCI/ADR-RES ovarian = system: NCI/ADR-RES ovarian
MCF7 breast = system: MCF7 breast
HCT-15 colon = system: HCT-15 colon
PC-3 prostate = system: PC-3 prostate
OVCAR-8 ovarian = system: OVCAR-8 ovarian
U251 CNS = system: U251 CNS
LOX IMVI melanoma = system: LOX IMVI melanoma
SW-620 colon = system: SW-620 colon
HOP-92 NSCLC = system: HOP-92 NSCLC
MDA-MB-231 breast = system: MDA-MB-231 breast
MALME-3M melanoma = system: MALME-3M melanoma
NCI-H226 lung = system: NCI-H226 lung
A498 renal = system: A498 renal
UACC-62 melanoma = system: UACC-62 melanoma
M14 melanoma = system: M14 melanoma
SK-OV-3 ovarian = system: SK-OV-3 ovarian
SF-539 CNS = system: SF-539 CNS
HCC-2998 colon = system: HCC-2998 colon
SK-MEL-28 melanoma = system: SK-MEL-28 melanoma
UACC-257 melanoma = system: UACC-257 melanoma
NCI-H460 lung = system: NCI-H460 lung
SF-268 CNS = system: SF-268 CNS
SK-MEL-2 melanoma = system: SK-MEL-2 melanoma
HL-60(TB) leukemia = system: HL-60(TB) leukemia
UO-31 renal = system: UO-31 renal
SN12C renal = system: SN12C renal
SK-MEL-5 melanoma = system: SK-MEL-5 melanoma
MDA-MB-435 = system: MDA-MB-435
786-0 renal = system: 786-0 renal
KM12 colon = system: KM12 colon
SNB-75 CNS = system: SNB-75 CNS
RXF 393 renal = system: RXF 393 renal
K-562 leukemia = system: K-562 leukemia
MOLT-4 leukemia = system: MOLT-4 leukemia
NCI-H23 lung = system: NCI-H23 lung
NCI-H522 lung = system: NCI-H522 lung
COLO 205 colon = system: COLO 205 colon
SR leukemia = system: SR leukemia
IGROV1 ovarian = system: IGROV1 ovarian
A549 NSCLC = system: A549 NSCLC
RPMI-8226 leukemia = system: RPMI-8226 leukemia
OVCAR-5 ovarian = system: OVCAR-5 ovarian
OVCAR-3 ovarian = system: OVCAR-3 ovarian
HOP-62 NSCLC = system: HOP-62 NSCLC
DU-145 prostate = system: DU-145 prostate
T-47D breast = system: T-47D breast
OVCAR-4 ovarian = system: OVCAR-4 ovarian
EKVX NSCLC = system: EKVX NSCLC
TK-10 renal = system: TK-10 renal
HT29 colon = system: HT29 colon
ACHN renal = system: ACHN renal
CAKI-1 renal = system: CAKI-1 renal

## COc1ccc(C2C(c3ccccc3)C(=O)N2c2cc(OC)c(OC)c(OC)c2)cc1I (stereo unspecified)
HS 578T breast
  GI50: 0.435 µM
  TGI: > 100 µM
SNB-19 CNS
  GI50: 0.59 µM
  TGI: > 100 µM
HCT-116 colon
  GI50: 0.343 µM
  TGI: 12.4 µM
CCRF-CEM leukemia
  GI50: 0.365 µM
  TGI: > 100 µM
SF-295 CNS
  GI50: 0.337 µM
  TGI: > 100 µM
BT-549 breast
  GI50: 0.419 µM
  TGI: 5.36 µM
NCI/ADR-RES ovarian
  GI50: 0.319 µM
  TGI: > 100 µM
MCF7 breast
  GI50: 0.336 µM
  TGI: > 100 µM
HCT-15 colon
  GI50: 0.339 µM
  TGI: > 100 µM
PC-3 prostate
  GI50: 0.488 µM
  TGI: > 100 µM
OVCAR-8 ovarian
  GI50: 0.407 µM
  TGI: > 100 µM
U251 CNS
  GI50: 0.388 µM
  TGI: > 100 µM
LOX IMVI melanoma
  GI50: 0.457 µM
  TGI: > 100 µM
SW-620 colon
  GI50: 0.423 µM
  TGI: > 100 µM
HOP-92 NSCLC
  GI50: 0.961 µM
  TGI: > 100 µM
MDA-MB-231 breast
  GI50: 0.455 µM
  TGI: > 100 µM
MALME-3M melanoma
  GI50: > 100 µM
  TGI: > 100 µM
NCI-H226 lung
  GI50: 15.6 µM
  TGI: > 100 µM
A498 renal
  GI50: 0.241 µM
  TGI: 0.777 µM
UACC-62 melanoma
  GI50: 0.458 µM
  TGI: > 100 µM
M14 melanoma
  GI50: 0.301 µM
  TGI: > 100 µM
SK-OV-3 ovarian
  GI50: 0.395 µM
  TGI: > 100 µM
SF-539 CNS
  GI50: 0.234 µM
  TGI: 0.657 µM
HCC-2998 colon
  GI50: 0.567 µM
  TGI: > 100 µM
SK-MEL-28 melanoma
  GI50: 2.31 µM
  TGI: > 100 µM
UACC-257 melanoma
  GI50: > 100 µM
  TGI: > 100 µM
NCI-H460 lung
  GI50: 0.337 µM
  TGI: > 100 µM
SF-268 CNS
  GI50: 0.712 µM
  TGI: > 100 µM
SK-MEL-2 melanoma
  GI50: 0.572 µM
  TGI: > 100 µM
HL-60(TB) leukemia
  GI50: 0.225 µM
  TGI: 0.533 µM
UO-31 renal
  GI50: 0.693 µM
  TGI: > 100 µM
SN12C renal
  GI50: 0.523 µM
  TGI: > 100 µM
SK-MEL-5 melanoma
  GI50: 0.224 µM
  TGI: 0.729 µM
MDA-MB-435
  GI50: 0.209 µM
  TGI: 0.644 µM
786-0 renal
  GI50: 0.397 µM
  TGI: > 100 µM
KM12 colon
  GI50: 0.343 µM
  TGI: > 100 µM
SNB-75 CNS
  GI50: 6.01 µM
  TGI: > 100 µM
RXF 393 renal
  GI50: 0.324 µM
  TGI: > 100 µM
K-562 leukemia
  GI50: 0.339 µM
  TGI: > 100 µM
MOLT-4 leukemia
  GI50: 0.337 µM
  TGI: > 100 µM
NCI-H23 lung
  GI50: 0.623 µM
  TGI: > 100 µM
NCI-H522 lung
  GI50: 0.276 µM
  TGI: 0.887 µM
COLO 205 colon
  GI50: 0.228 µM
  TGI: 0.648 µM
SR leukemia
  GI50: 0.286 µM
  TGI: > 100 µM
IGROV1 ovarian
  GI50: 0.58 µM
  TGI: > 100 µM
A549 NSCLC
  GI50: 0.479 µM
  TGI: > 100 µM
RPMI-8226 leukemia
  GI50: 0.422 µM
  TGI: > 100 µM
OVCAR-5 ovarian
  GI50: 0.526 µM
  TGI: > 100 µM
OVCAR-3 ovarian
  GI50: 0.28 µM
  TGI: 0.802 µM
HOP-62 NSCLC
  GI50: 0.57 µM
  TGI: > 100 µM
DU-145 prostate
  GI50: 0.332 µM
  TGI: 75.4 µM
T-47D breast
  GI50: > 100 µM
  TGI: > 100 µM
OVCAR-4 ovarian
  GI50: 0.709 µM
  TGI: > 100 µM
EKVX NSCLC
  GI50: 0.658 µM
  TGI: > 100 µM
TK-10 renal
  GI50: > 100 µM
  TGI: > 100 µM
HT29 colon
  GI50: 0.344 µM
  TGI: 90.1 µM

## CCN(Cc1nc2cc(C(F)(F)F)ccc2nc1-c1ccccc1)c1ccc(OC)c(OC)c1
HS 578T breast
  GI50: 11.4 µM
  TGI: 30 µM
SNB-19 CNS
  GI50: 24.6 µM
  TGI: 50.4 µM
HCT-116 colon
  GI50: 11.1 µM
  TGI: 23.2 µM
CCRF-CEM leukemia
  GI50: 4.74 µM
  TGI: 24.7 µM
SF-295 CNS
  GI50: 15.7 µM
  TGI: 31.8 µM
ACHN renal
  GI50: 16.4 µM
  TGI: 44 µM
BT-549 breast
  GI50: 13.4 µM
  TGI: 31.7 µM
NCI/ADR-RES ovarian
  GI50: 29.2 µM
  TGI: > 100 µM
MCF7 breast
  GI50: 25.9 µM
  TGI: > 100 µM
HCT-15 colon
  GI50: 16.3 µM
  TGI: 34.5 µM
PC-3 prostate
  GI50: 7.33 µM
  TGI: 22 µM
OVCAR-8 ovarian
  GI50: 1.51 µM
  TGI: 18.7 µM
U251 CNS
  GI50: 6.49 µM
  TGI: 19.1 µM
LOX IMVI melanoma
  GI50: 14.2 µM
  TGI: 27.2 µM
SW-620 colon
  GI50: 16.6 µM
  TGI: 36.5 µM
HOP-92 NSCLC
  GI50: 15 µM
  TGI: 30.4 µM
MDA-MB-231 breast
  GI50: 12.7 µM
  TGI: 29.2 µM
NCI-H226 lung
  GI50: 13.2 µM
  TGI: 29 µM
A498 renal
  GI50: 4.42 µM
  TGI: 20.7 µM
CAKI-1 renal
  GI50: 17.4 µM
  TGI: 64.2 µM
UACC-62 melanoma
  GI50: 14.1 µM
  TGI: 27.7 µM
M14 melanoma
  GI50: 15.4 µM
  TGI: 29.5 µM
SK-OV-3 ovarian
  GI50: 39.8 µM
  TGI: > 100 µM
SF-539 CNS
  GI50: 15.9 µM
  TGI: 33.1 µM
HCC-2998 colon
  GI50: 16.7 µM
  TGI: 34.4 µM
SK-MEL-28 melanoma
  GI50: 25.2 µM
  TGI: 76 µM
UACC-257 melanoma
  GI50: 0.0249 µM
  TGI: 0.793 µM
NCI-H460 lung
  GI50: 22.2 µM
  TGI: > 100 µM
SF-268 CNS
  GI50: 26.1 µM
  TGI: > 100 µM
SK-MEL-2 melanoma
  GI50: 16.7 µM
  TGI: 34.7 µM
HL-60(TB) leukemia
  GI50: 4.46 µM
  TGI: 17.6 µM
UO-31 renal
  GI50: 19.8 µM
  TGI: 46.2 µM
SN12C renal
  GI50: 14.9 µM
  TGI: 29.6 µM
SK-MEL-5 melanoma
  GI50: 13.9 µM
  TGI: 28 µM
MDA-MB-435
  GI50: 16.4 µM
  TGI: 32.4 µM
786-0 renal
  GI50: 15.7 µM
  TGI: 30.3 µM
KM12 colon
  GI50: 19.9 µM
  TGI: 43.6 µM
SNB-75 CNS
  GI50: 24.5 µM
  TGI: 71.7 µM
RXF 393 renal
  GI50: 0.312 µM
  TGI: 9.09 µM
K-562 leukemia
  GI50: 6.72 µM
  TGI: 24.6 µM
MOLT-4 leukemia
  GI50: 11.8 µM
  TGI: 52.1 µM
NCI-H23 lung
  GI50: 13.5 µM
  TGI: 34.2 µM
NCI-H522 lung
  GI50: 14.5 µM
  TGI: 34 µM
COLO 205 colon
  GI50: 31.4 µM
  TGI: > 100 µM
SR leukemia
  GI50: 7.61 µM
  TGI: 31.2 µM
IGROV1 ovarian
  GI50: 16.8 µM
  TGI: 33.7 µM
A549 NSCLC
  GI50: 0.369 µM
  TGI: 16.3 µM
RPMI-8226 leukemia
  GI50: 2.51 µM
  TGI: 11.2 µM
OVCAR-5 ovarian
  GI50: 21.6 µM
  TGI: 46 µM
OVCAR-3 ovarian
  GI50: 13.1 µM
  TGI: 26.5 µM
HOP-62 NSCLC
  GI50: 15.1 µM
  TGI: 29.1 µM
DU-145 prostate
  GI50: 14.5 µM
  TGI: 31.9 µM
T-47D breast
  GI50: 18.5 µM
  TGI: 61.2 µM
OVCAR-4 ovarian
  GI50: 41.2 µM
  TGI: > 100 µM
EKVX NSCLC
  GI50: 20.1 µM
  TGI: 73.6 µM
TK-10 renal
  GI50: 28 µM
  TGI: 82.3 µM
HT29 colon
  GI50: 14.9 µM
  TGI: > 100 µM

From PubChem BioAssay (NCI)
